Laboratory results: US11117900B2 (Vertex Pharmaceuticals Incorporated, priority 2012, dated 2021)

tested on: HCT116 colorectal cancer cells; assay: Cisplatin sensitization assay (96 h MTS cell viability); type: cell-based; details: Cisplatin sensitization value;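 further: compound concentration needed to lower the IC50 of Cisplatin alone by a set fold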
Summary of the method: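 HCT116 cells were dosed simultaneously with compound and cisplatin as a full matrix of 2-fold serial dilutions from 10 μM top final concentration. Incubation was 96 h at 37° C., 5% CO2, followed by 1 h with MTS reagent for the viability read-out. Sensitization values were binned into +++, ++ and + categories.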

| Compound | Cisplatin Sensitization Assay |
| --- | --- |
| CN(C)C(=O)[C@H]1CC[C@@H](Oc2ccncc2NC(=O)c2c(N)nn3cc(F)cnc23)CC1 [I-O-17, 2-amino-N-(4-(((1s,4s)-4-(dimethylcarbamoyl)cyclohexyl)oxy)pyridin-3-yl)-6-fluoropyrazolo[1,5-a]pyrimidine-3-carboxamide] | +++ (Compounds with a Cisplatin sensitization value of <0.02 μM are marked with “+++.”) |
| CN1CCN(C(=O)[C@H]2CC[C@@H](Oc3ccncc3NC(=O)c3c(N)nn4cc(F)cnc34)CC2)CC1 [I-O-19, 2-amino-6-fluoro-N-(4-(((1s,4s)-4-(4-methylpiperazine-1-carbonyl)cyclohexyl)oxy)pyridin-3-yl)pyrazolo[1,5-a]pyrimidine-3-carboxamide] | +++ (Compounds with a Cisplatin sensitization value of <0.02 μM are marked with “+++.”) |
| CCC(C#N)c1cnc2c(C(=O)Nc3cnccc3OC)c(N)nn2c1 (centres unmarked) [I-O-20, 2-amino-6-(1-cyanopropyl)-N-(4-methoxypyridin-3-yl)pyrazolo[1,5-a]pyrimidine-3-carboxamide] | ++ (Compounds with a Cisplatin sensitization value >0.02 μM but <0.2 μM are marked with “++.”) |
| COc1ccncc1NC(=O)c1c(N)nn2cc(C(C)C#N)cnc12 (centres unmarked) [I-O-21, 2-amino-6-(1-cyanoethyl)-N-(4-methoxypyridin-3-yl)pyrazolo[1,5-a]pyrimidine-3-carboxamide] | ++ (Compounds with a Cisplatin sensitization value >0.02 μM but <0.2 μM are marked with “++.”) |
| CN1CCC(Oc2ccncc2NC(=O)c2c(N)nn3cc(CC#N)cnc23)CC1 [I-O-23, 2-amino-6-(cyanomethyl)-N-(4-((1-methylpiperidin-4-yl)oxy)pyridin-3-yl)pyrazolo[1,5-a]pyrimidine-3-carboxamide] | +++ (Compounds with a Cisplatin sensitization value of <0.02 μM are marked with “+++.”) |
| CN(C)CCOc1ccncc1NC(=O)c1c(N)nn2cc(CC#N)cnc12 [I-O-24, 2-amino-6-(cyanomethyl)-N-(4-(2-(dimethylamino)ethoxy)pyridin-3-yl)pyrazolo[1,5-a]pyrimidine-3-carboxamide] | ++ (Compounds with a Cisplatin sensitization value >0.02 μM but <0.2 μM are marked with “++.”) |
| N#CCc1cnc2c(C(=O)Nc3cnccc3Oc3ccccc3)c(N)nn2c1 [I-O-25, 2-amino-6-(cyanomethyl)-N-(4-phenoxypyridin-3-yl)pyrazolo[1,5-a]pyrimidine-3-carboxamide] | +++ (Compounds with a Cisplatin sensitization value of <0.02 μM are marked with “+++.”) |
| COc1ccncc1NC(=O)c1c(N)nn2cc(CC#N)cnc12 [I-O-26, 2-amino-6-(cyanomethyl)-N-(4-methoxypyridin-3-yl)pyrazolo[1,5-a]pyrimidine-3-carboxamide] | ++ (Compounds with a Cisplatin sensitization value >0.02 μM but <0.2 μM are marked with “++.”) |
| COc1cc(Cl)ncc1NC(=O)c1c(N)nn2cc(CC#N)cnc12 [I-O-27, 2-amino-N-(6-chloro-4-methoxypyridin-3-yl)-6-(cyanomethyl)pyrazolo[1,5-a]pyrimidine-3-carboxamide] | ++ (Compounds with a Cisplatin sensitization value >0.02 μM but <0.2 μM are marked with “++.”) |
| CCOc1ccncc1NC(=O)c1c(N)nn2cc(CC#N)cnc12 [I-O-28, 2-amino-6-(cyanomethyl)-N-(4-ethoxypyridin-3-yl)pyrazolo[1,5-a]pyrimidine-3-carboxamide] | +++ (Compounds with a Cisplatin sensitization value of <0.02 μM are marked with “+++.”) |
| COCCOc1ccncc1NC(=O)c1c(N)nn2cc(CC#N)cnc12 [I-O-29, 2-amino-6-(cyanomethyl)-N-(4-(2-methoxyethoxy)pyridin-3-yl)pyrazolo[1,5-a]pyrimidine-3-carboxamide] | +++ (Compounds with a Cisplatin sensitization value of <0.02 μM are marked with “+++.”) |
| N#CCc1cnc2c(C(=O)Nc3cnccc3OC3CCOCC3)c(N)nn2c1 [I-O-30, 2-amino-6-(cyanomethyl)-N-(4-((tetrahydro-2H-pyran-4-yl)oxy)pyridin-3-yl)pyrazolo[1,5-a]pyrimidine-3-carboxamide] | +++ (Compounds with a Cisplatin sensitization value of <0.02 μM are marked with “+++.”) |
| N#CCc1cnc2c(C(=O)Nc3cnccc3O[C@@H]3CCOC3)c(N)nn2c1 [I-O-31, (R)-2-amino-6-(cyanomethyl)-N-(4-((tetrahydrofuran-3-yl)oxy)pyridin-3-yl)pyrazolo[1,5-a]pyrimidine-3-carboxamide] | +++ (Compounds with a Cisplatin sensitization value of <0.02 μM are marked with “+++.”) |
| N#CCc1cnc2c(C(=O)Nc3cnccc3OCC3CC3)c(N)nn2c1 [I-O-32, 2-amino-6-(cyanomethyl)-N-(4-(cyclopropylmethoxy)pyridin-3-yl)pyrazolo[1,5-a]pyrimidine-3-carboxamide] | +++ (Compounds with a Cisplatin sensitization value of <0.02 μM are marked with “+++.”) |
| N#CCc1cnc2c(C(=O)Nc3cnccc3OCCO)c(N)nn2c1 [I-O-33, 2-amino-6-(cyanomethyl)-N-(4-(2-hydroxyethoxy)pyridin-3-yl)pyrazolo[1,5-a]pyrimidine-3-carboxamide] | ++ (Compounds with a Cisplatin sensitization value >0.02 μM but <0.2 μM are marked with “++.”) |
| N#CCc1cnc2c(C(=O)Nc3cnccc3OCC(F)(F)F)c(N)nn2c1 [I-O-34, 2-amino-6-(cyanomethyl)-N-(4-(2,2,2-trifluoroethoxy)pyridin-3-yl)pyrazolo[1,5-a]pyrimidine-3-carboxamide] | ++ (Compounds with a Cisplatin sensitization value >0.02 μM but <0.2 μM are marked with “++.”) |
| CC(C)Oc1ccncc1NC(=O)c1c(N)nn2cc(CC#N)cnc12 [I-O-35, 2-amino-6-(cyanomethyl)-N-(4-isopropoxypyridin-3-yl)pyrazolo[1,5-a]pyrimidine-3-carboxamide] | +++ (Compounds with a Cisplatin sensitization value of <0.02 μM are marked with “+++.”) |
| N#CCc1cnc2c(C(=O)Nc3cnccc3OC3CCC3)c(N)nn2c1 [I-O-36, 2-amino-6-(cyanomethyl)-N-(4-cyclobutoxypyridin-3-yl)pyrazolo[1,5-a]pyrimidine-3-carboxamide] | +++ (Compounds with a Cisplatin sensitization value of <0.02 μM are marked with “+++.”) |
| N#CCc1cnc2c(C(=O)Nc3cnccc3OC3COC3)c(N)nn2c1 [I-O-38, 2-amino-6-(cyanomethyl)-N-(4-(oxetan-3-yloxy)pyridin-3-yl)pyrazolo[1,5-a]pyrimidine-3-carboxamide] | +++ (Compounds with a Cisplatin sensitization value of <0.02 μM are marked with “+++.”) |
| N#CCc1cnc2c(C(=O)Nc3cnccc3OC3CCCCC3)c(N)nn2c1 [I-O-39, 2-amino-6-(cyanomethyl)-N-(4-(cyclohexyloxy)pyridin-3-yl)pyrazolo[1,5-a]pyrimidine-3-carboxamide] | +++ (Compounds with a Cisplatin sensitization value of <0.02 μM are marked with “+++.”) |
| N#CCc1cnc2c(C(=O)Nc3cnccc3OCCCO)c(N)nn2c1 [I-O-40, 2-amino-6-(cyanomethyl)-N-(4-(3-hydroxypropoxy)pyridin-3-yl)pyrazolo[1,5-a]pyrimidine-3-carboxamide] | ++ (Compounds with a Cisplatin sensitization value >0.02 μM but <0.2 μM are marked with “++.”) |
| N#CCc1cnc2c(C(=O)Nc3cnccc3OC3CCCOC3)c(N)nn2c1 (centres unmarked) [I-O-41, 2-amino-6-(cyanomethyl)-N-(4-((tetrahydro-2H-pyran-3-yl)oxy)pyridin-3-yl)pyrazolo[1,5-a]pyrimidine-3-carboxamide] | +++ (Compounds with a Cisplatin sensitization value of <0.02 μM are marked with “+++.”) |
| N#CCc1cnc2c(C(=O)Nc3cnccc3O[C@H]3CCOC3)c(N)nn2c1 [I-O-42, (S)-2-amino-6-(cyanomethyl)-N-(4-((tetrahydrofuran-3-yl)oxy)pyridin-3-yl)pyrazolo[1,5-a]pyrimidine-3-carboxamide] | +++ (Compounds with a Cisplatin sensitization value of <0.02 μM are marked with “+++.”) |
| N#CCc1cnc2c(C(=O)Nc3cnccc3OC3CCCC3)c(N)nn2c1 [I-O-43, 2-amino-6-(cyanomethyl)-N-(4-(cyclopentyloxy)pyridin-3-yl)pyrazolo[1,5-a]pyrimidine-3-carboxamide] | +++ (Compounds with a Cisplatin sensitization value of <0.02 μM are marked with “+++.”) |
| Nc1nn2cc(F)cnc2c1C(=O)Nc1cnccc1OC1CCS(=O)(=O)CC1 [I-O-45, 2-amino-N-(4-((1,1-dioxidotetrahydro-2H-thiopyran-4-yl)oxy)pyridin-3-yl)-6-fluoropyrazolo[1,5-a]pyrimidine-3-carboxamide] | +++ (Compounds with a Cisplatin sensitization value of <0.02 μM are marked with “+++.”) |
| CN1CCC(Oc2c(Cl)cncc2NC(=O)c2c(N)nn3cc(Cl)cnc23)CC1 [I-O-46, 2-amino-6-chloro-N-(5-chloro-4-((1-methylpiperidin-4-yl)oxy)pyridin-3-yl)pyrazolo[1,5-a]pyrimidine-3-carboxamide] | + (Compounds with a Cisplatin sensitization value >0.2 μM but <5 μM are marked with “+.”) |
| CN(C)CCOCCOc1ccncc1NC(=O)c1c(N)nn2cc(Cl)cnc12 [I-O-47, 2-amino-6-chloro-N-(4-(2-(2-(dimethylamino)ethoxy)ethoxy)pyridin-3-yl)pyrazolo[1,5-a]pyrimidine-3-carboxamide] | + (Compounds with a Cisplatin sensitization value >0.2 μM but <5 μM are marked with “+.”) |
| CN(C)CCOc1ccncc1NC(=O)c1c(N)nn2cc(Cl)cnc12 [I-O-48, 2-amino-6-chloro-N-(4-(2-(dimethylamino)ethoxy)pyridin-3-yl)pyrazolo[1,5-a]pyrimidine-3-carboxamide] | ++ (Compounds with a Cisplatin sensitization value >0.02 μM but <0.2 μM are marked with “++.”) |
| CN1CCC[C@H]1COc1ccncc1NC(=O)c1c(N)nn2cc(Cl)cnc12 [I-O-50, (S)-2-amino-6-chloro-N-(4-((1-methylpyrrolidin-2-yl)methoxy)pyridin-3-yl)pyrazolo[1,5-a]pyrimidine-3-carboxamide] | + (Compounds with a Cisplatin sensitization value >0.2 μM but <5 μM are marked with “+.”) |
